Results taken from US20250101446A1, “METHOD FOR GENETIC TRANSFORMATION OF PLANT ORGANELLE GENOME AND USES THEREOF” (Solar Grants Biotechnology Inc., priority 2022, published 2025).

Key:
[1] = test system: human NSCLC cell line NCI-H1792; assay: IL-6 secretion by NCI-H1792 cells incubated with NSP10-derived peptides (ELISA); assay type: cell-based; conditions: peptide 24 h
[2] = test system: human metastatic breast cancer cell line MDA-MB-231; assay: IL-6 secretion by MDA-MB-231 cells (P1 stimulation, plantakine pre-incubation; ELISA); assay type: cell-based
Experimental: IL-6 secretion by the human metastatic breast cancer cell line MDA-MB-231 into the conditioned media was measured by ELISA. The cells were pre-incubated for 3 h in the presence of plant-produced recombinant IL-38 or IL-37b at the indicated concentrations (ng/ml) prior to stimulation with peptide P1 (10 mM). PBS (1×) was added to the control. Shown are the average results of 3 independent experiments. ** P<0.01; * P<0.05, compared with the control.
Correct folding of plant-produced IL-38 and IL-37b anti-inflammatory cytokines was assessed by enzyme-linked immunosorbent assay (ELISA) using the DuoSet Human IL-38/IL-1F10 kit (R&D systems) and the Human IL-37/IL-1F7 uncoated ELISA kit (Invitrogen), respectively, following the instructions of the manufacturers. Secreted IL-6 was assessed using the Human IL-6 Uncoated ELISA kit (Invitrogen).

in vitro = conditions: human
SARS-COV-2 = assay type: cell-based; conditions: at 200 µM concentration
[3] = test system: human NSCLC cell line NCI-H1792; assay: Attenuation of P1-induced IL-6 secretion in NCI-H1792 cells by pre-treatment with plant-produced cytokines (ELISA); assay type: cell-based; conditions: control protein bearing an identical His-tag

Row | Compound | stimulation / induction of IL-6 secretion (in words) [1] | CC50 (in vitro) | further results
1 | YGRKKRRQRRRGSG (HIV-Tat peptide sequence) [TAT sequence peptide, 42, reference compound] | not |  | 
2 | CC[C@H](C)[C@H](NC(=O)[C@H](Cc1c[nH]cn1)NC(=O)[C@H](CS)NC(=O)[C@H](CCCNC(=N)N)NC(=O)[C@H](CS)NC(=O)[C@H](Cc1ccc(O)cc1)NC(=O)[C@H](CC(C)C)NC(=O)[C@H](CS)NC(=O)[C@H](CS)NC(=O)[C@H](CO)NC(=O)[C@H](C)NC(=O)CNC(=O)CNC(=O)[C@H](Cc1ccccc1)NC(=O)CNC(=O)[C@H](CO)NC(=O)CNC(=O)[C@H](CCCNC(=N)N)NC(=O)[C@H](CCCNC(=N)N)NC(=O)[C@H](CCCNC(=N)N)NC(=O)[C@H](CCC(N)=O)NC(=O)[C@H](CCCNC(=N)N)NC(=O)[C@H](CCCNC(=N)N)NC(=O)[C@H](CCCCN)NC(=O)[C@H](CCCCN)NC(=O)[C@H](CCCNC(=N)N)NC(=O)CNC(=O)[C@H](Cc1ccc(O)cc1)NC(C)=O)C(=O)N[C@@H](CC(=O)O)C(=O)N[C@@H](Cc1c[nH]cn1)C(=O)N1CCC[C@H]1C(=O)N[C@@H](CC(N)=O)C(=O)N1CCC[C@H]1C(=O)N[C@@H](CCCCN)C(=O)NCC(=O)N[C@@H](Cc1ccccc1)C(=O)N[C@@H](CS)C(=O)N[C@@H](CC(=O)O)C(=O)N[C@@H](CC(C)C)C(=O)N[C@@H](CCCCN)C(=O)NCC(=O)N[C@@H](CCCCN)C(=O)N[C@@H](Cc1ccc(O)cc1)C(N)=O [P1] |  | 11 µM | stimulation of the intrinsic secretion of IL-6 ([1]; normalized to PBS control): > 4 fold; IL-6 secretion on treatment with peptide (in words) [2]: strongly increased
3 | CC[C@H](C)[C@H](NC(=O)[C@H](CCCNC(=N)N)NC(=O)[C@H](CS)NC(=O)[C@H](CCCNC(=N)N)NC(=O)[C@H](CS)NC(=O)[C@H](Cc1ccc(O)cc1)NC(=O)[C@H](CC(C)C)NC(=O)[C@H](CS)NC(=O)[C@H](CS)NC(=O)[C@H](CO)NC(=O)[C@H](C)NC(=O)CNC(=O)CNC(=O)[C@H](Cc1ccccc1)NC(=O)CNC(=O)[C@H](CO)NC(=O)CNC(=O)[C@H](CCCNC(=N)N)NC(=O)[C@H](CCCNC(=N)N)NC(=O)[C@H](CCCNC(=N)N)NC(=O)[C@H](CCC(N)=O)NC(=O)[C@H](CCCNC(=N)N)NC(=O)[C@H](CCCNC(=N)N)NC(=O)[C@H](CCCCN)NC(=O)[C@H](CCCCN)NC(=O)[C@H](CCCNC(=N)N)NC(=O)CNC(=O)[C@H](Cc1ccc(O)cc1)NC(C)=O)C(=O)N[C@@H](CC(=O)O)C(=O)N[C@@H](Cc1c[nH]cn1)C(=O)N1CCC[C@H]1C(=O)N[C@@H](CC(N)=O)C(=O)N1CCC[C@H]1C(=O)N[C@@H](CCCCN)C(=O)NCC(=O)N[C@@H](Cc1ccccc1)C(=O)N[C@@H](CS)C(=O)N[C@@H](CC(=O)O)C(=O)N[C@@H](CC(C)C)C(=O)N[C@@H](CCCCN)C(=O)NCC(=O)N[C@@H](CCCCN)C(=O)N[C@@H](Cc1ccc(O)cc1)C(N)=O [P2] | no IL-6 induction | > 200 µM | effect against the virus-infected cells (SARS-COV-2): no detectable effect
4 | GFP: His-tag containing plant-produced Green Fluorescent Protein used as control protein [reference compound] |  |  | attenuation of P1-induced IL-6 expression (in words) [3]: did not result in any significant attenuation
